# How the values were obtained:
# [1] = molecular target: HIV-1 integrase (IN) (Human immunodeficiency virus type 1 group M subtype B, UniProt P12497); assay: HTRF-based LEDGF/p75 independent 3′-processing assay; assay type: biochemical
# [2] = system: HEK293T cells; details: without viral infection (Fig. 4B)
Compound,inhibition of IN 3′processing activity in the absence of LEDGF/p75 (in words) [1],cellular toxicity in words [2]
"O=C(O)c1cc(N(Cc2cccc(F)c2)Cc2cccc(F)c2)ccc1O [Compound 6, 5-[Bis(3-fluorobenzyl)amino]-2-hydroxybenzoic acid]",weak inhibitions,
"O=C(O)c1cc(N(Cc2ccccc2Cl)Cc2ccccc2Cl)ccc1O [Compound 2, 5-[Bis(2-chlorobenzyl)amino]-2-hydroxybenzoic acid]",weak inhibitions,significant cellular toxicity
"O=C(O)c1cc(N(Cc2ccccc2)Cc2ccccc2)ccc1O [Compound 1, 5-(Dibenzylamino)-2-hydroxybenzoic acid]",weak inhibitions,
"O=C(O)c1cc(N(Cc2ccccc2F)Cc2ccccc2F)ccc1O [Compound 5, 5-[Bis(2-fluorobenzyl)amino]-2-hydroxybenzoic acid]",weak inhibitions,
